# Assay results: patent publication US6068850A, “Aqueous formulations of peptides” (Alza Corporation, priority 1999, dated 2000)
# “And” between values parts separate entries of the source, which are not always exact repeats. Equal values may be shown once. Read-outs that look alike come from different tables or passages of the source.
# Key:
# [1] = Stability of 15% nafarelin formulation, one month at 37° C., RP-HPLC; format: physicochemical; settings: 15% (w/w), Acetate Buffer/Mannitol
# Protocol: Stability samples were analyzed using RP-HPLC. The area under the curve for the leuprolide peak divided by the sum of the areas under the curve of all peaks gave % purity. […] Formulations of 15% (w/w) nafarelin in acetate buffer with 3% mannitol were prepared as described above and placed in polymeric containers. The containers were stored at 37° C. for one month in an incubator. The samples were analyzed using RP-HPLC to determine the chemical stability of the aged formulations.
# [2] = format: physicochemical; settings: for evaporated from reservoir / % Leuprolide at Day 7: 88° C.; for evaporated from reservoir: 7 days
# Text: The reservoirs of implantable drug delivery devices (as disclosed in U.S. patent application Ser. No. 08/595,761, incorporated herein by reference) were filled with the appropriate leuprolide acetate solution. The filled devices then underwent stability testing. The formulation was filled into titanium or polymer reservoirs with a polymer plug blocking each end. The filled reservoir was then sealed in a polyfoil bag and placed in a stability testing oven. […] The chromatographic conditions used are listed below. Leuprolide standards (in water) at 4 to 6 different concentration levels, typically between 0.1-1.2 mg/mL, were run along with the stability samples. The stability samples were bracketed by the standard sets, with no more than 40 samples in between the standard sets. All peaks between the void volume and 45 minutes of the run were integrated. The integrated peak areas for the leuprolide standards were plotted as a function of the concentration. The leuprolide concentrations for the stability samples were then calculated using linear regression. The % peak areas for the leuprolide peak, the sum of all the peaks eluting before leuprolide (labeled "others"), and the sum of all the peaks eluting after leuprolide (labeled "aggregates") were also recorded and plotted as a function of the sample timepoints. Formulations of 40% (w/w) leuprolide acetate (equivalent to about 37% leuprolide free base) in either sterile distilled water, ethanol/water (70/30) or water with 10% Tween 20 were prepared as described above and used to fill the reservoirs of implantable drug delivery devices, also as described above. Some reservoirs were made of polymer materials, while some were titanium. The filled devices were subjected to accelerated aging by storing them at elevated temperatures (80-88° C.) for seven days in an incubator (Precision Scientific or Thelco). This is equivalent to about 1.5 years at 37° C. or about four years at room temperature (25° C.), assuming an activation energy (Ea) or 22.2 kcal/mole. The samples were analyzed using RP-HPLC and SEC as described above to determine the chemical and physical stability of the aged formulations.
# [3] = Stability of 40% leuprolide acetate formulations after 2.5 megarad gamma irradiation and accelerated aging, RP-HPLC and SEC; format: physicochemical; settings: for % Leuprolide at Day 7 (RP-HPLC) / SEC Day 0 % dimer/trimer / SEC Day 0 % monomer / SEC Day 7 % dimer/trimer / SEC Day 7 % monomer: 40% in Water
# Protocol: (§1) The chromatographic conditions used are listed below.
# Formulations of 40% (w/w) as received leuprolide acetate (equivalent to 37% leuprolide free base) in water were prepared as described above and used to fill the reservoirs of drug delivery devices, also as described above. Some reservoirs were made of polymer materials, while some were titanium.
# The filled devices were subjected to 2.5 megarad gamma irradiation. Samples were shipped to Sterigenics (Tustin, Calif.) and gamma irradiated (Cobalt 60) in batch mode. Samples were then subjected to accelerated aging as in Example 1. Samples labeled "cold" were shipped and irradiated on dry ice. Samples were taken at day 0 and day 7, and analyzed using RP-HPLC and SEC as described above to determine the chemical and physical stability of the irradiated formulations.
# [4] = Protocol: as §1
# Selected stability samples were analyzed for % peak area and molecular weights using an isocratic solution SEC assay with a refrigerated autosampler (4° C.). The chromatographic conditions used are listed below.
# Solutions of 40% leuprolide acetate (w/w) in water were prepared, loaded into reservoirs, stored for two months at 80° C. and analyzed as described above.
# Leuprolide acetate solutions (40% (w/w) in water) were prepared, loaded, stored at 37° C., 50° C., 65° C. or 80° C. and analyzed using RP-HPLC as described above.
# Solutions of 40% leuprolide acetate (w/w) in water were prepared, loaded into reservoirs, stored at 37° C., 50° C., 65° C. or 80° C. and analyzed using RP-HPLC as described above.
# bacteria = assay: Bacteriostatic, bactericidal and sporicidal activity of leuprolide formulations; spiking with bacteria; settings: formulations of 50-400 mg/ml
# [5] = Gelation of aqueous peptide formulations on adding polar aprotic solvents such as DMSO; format: physicochemical; settings: aqueous formulation
# Text: Thus, these solvents have an anti-gellant effect.
# [6] = 40% in water, nine months at 37° C., RP-HPLC
# Protocol: All stability samples were analyzed for leuprolide concentration and % peak area using a gradient elution reversed-phase HPLC assay with a refrigerated autosampler (4° C.) to minimize sample degradation.
# [7] = Accelerated stability of 30% goserelin at 80° C., purity by RP-HPLC; format: physicochemical; settings: 30% (w/w) in acetate buffer pH 5.0 with 3% mannitol, glass ampules, after 9 days
# [8] = Stability of 40-45% goserelin formulations, one month at 37° C., RP-HPLC; format: physicochemical; settings: for % PURITY / % CONCENTRATION: 40-45% (w/w); for % CONCENTRATION: patent calls these data inconclusive
# Protocol: Stability samples were analyzed using RP-HPLC. The area under the curve for the leuprolide peak divided by the sum of the areas under the curve of all peaks gave % purity. […] Formulations of 40-45% (w/w) goserelin in either acetate buffer, with 3% mannitol or acetate buffer with salt (0.9% NaCl) were prepared as described above and placed in polymeric containers. The containers were stored at 37° C. for one month in an incubator. The samples were analyzed using RP-HPLC to determine the chemical stability of the aged formulations.
# [9] = all Table IV formulations, after irradiation and 7 days accelerated aging
# [10] = polymer reservoir, irradiated cold (on dry ice)
# [11] = polymer reservoir, not irradiated
# [12] = titanium reservoir, not irradiated
# [13] = Acetate Buffer/Salt (0.9% NaCl)
compound,measurement,setting,value
"CC(C)C[C@H](NC(=O)[C@@H](Cc1ccc2ccccc2c1)NC(=O)[C@H](Cc1ccc(O)cc1)NC(=O)[C@H](CO)NC(=O)[C@H](Cc1c[nH]c2ccccc12)NC(=O)[C@H](Cc1c[nH]cn1)NC(=O)[C@@H]1CCC(=O)N1)C(=O)N[C@@H](CCCNC(=N)N)C(=O)N1CCC[C@H]1C(=O)NCC(N)=O [Nafarelin, nafarelin]",% PURITY,[1],98.8%
same,nafarelin retained,[1],at least 98%
same,% CONCENTRATION,[1]; patent calls these data inconclusive,18.3%
"CCNC(=O)[C@@H]1CCCN1C(=O)[C@H](CCCNC(=N)N)NC(=O)[C@H](CC(C)C)NC(=O)[C@@H](CC(C)C)NC(=O)[C@H](Cc1ccc(O)cc1)NC(=O)[C@H](CO)NC(=O)[C@H](Cc1c[nH]c2ccccc12)NC(=O)[C@H](Cc1c[nH]cn1)NC(=O)[C@@H]1CCC(=O)N1 [Leuprolide Acetate, leuprolide acetate]",evaporated from reservoir,"[2]; polymer reservoir, 40% in EtOH/H2O",60%
same,evaporated from reservoir,"[2]; polymer reservoir, 40% in Water (sample with 66% leuprolide)",10%
same,% Leuprolide at Day 7,"[2]; polymer reservoir, 40% in 10% Tween 20",65%
same,% Leuprolide at Day 7,"[2]; polymer reservoir, 40% in EtOH/H2O (70/30)",85%
same,% Leuprolide at Day 7,"[2]; polymer reservoir, 40% in Water",68% and 66%
same,% Leuprolide at Day 7,"[2]; titanium reservoir, 40% in Water",71%
same,"leuprolide retained, in each case","[2]; all Table III formulations, 7 days at 80-88° C.",at least 65%
same,aggregate formation,[3]; [9],low levels of aggregate formation
same,"leuprolide retained, in every case",[3]; [9],at least 65%
same,% Leuprolide at Day 7 (RP-HPLC),"[3]; polymer reservoir, irradiated",75%
same,SEC Day 0 % dimer/trimer,"[3]; polymer reservoir, irradiated",1.2%
same,SEC Day 0 % monomer,"[3]; polymer reservoir, irradiated",90.4%
same,SEC Day 7 % dimer/trimer,"[3]; polymer reservoir, irradiated",3.9%
same,SEC Day 7 % monomer,"[3]; polymer reservoir, irradiated",80.9%
same,% Leuprolide at Day 7 (RP-HPLC),[3]; [10],79%
same,SEC Day 0 % dimer/trimer,[3]; [10],0.2%
same,SEC Day 0 % monomer,[3]; [10],89.4%
same,SEC Day 7 % dimer/trimer,[3]; [10],3.1%
same,SEC Day 7 % monomer,[3]; [10],80.3%
same,% Leuprolide at Day 7 (RP-HPLC),[3]; [11],75%
same,SEC Day 0 % dimer/trimer,[3]; [11],0.2%
same,SEC Day 0 % monomer,[3]; [11],99.8%
same,SEC Day 7 % dimer/trimer,[3]; [11],3.1%
same,SEC Day 7 % monomer,[3]; [11],82.4%
same,% Leuprolide at Day 7 (RP-HPLC),"[3]; titanium reservoir, irradiated",83% and 81% and 73% and 79% and 74%
same,SEC Day 0 % dimer/trimer,"[3]; titanium reservoir, irradiated",1.1% and 0.9% and 0.8% and 0.5%
same,SEC Day 0 % monomer,"[3]; titanium reservoir, irradiated",98.5% and 98.8% and 99.1% and 99% and 98.6%
same,SEC Day 7 % dimer/trimer,"[3]; titanium reservoir, irradiated",2% and 2.4% and 3% and 3.4% and 3.6%
same,SEC Day 7 % monomer,"[3]; titanium reservoir, irradiated",84.9% and 94.7% and 88.3% and 94.3% and 90.9%
same,% Leuprolide at Day 7 (RP-HPLC),[3]; [12],82%
same,SEC Day 0 % dimer/trimer,[3]; [12],0%
same,SEC Day 0 % monomer,[3]; [12],99.6% and 99.9%
same,SEC Day 7 % dimer/trimer,[3]; [12],0% and 1.9%
same,SEC Day 7 % monomer,[3]; [12],96.6% and 95%
same,chemical degradation,[4],14.6%
same,activation energy (Ea) of leuprolide loss,"[4]; 40% (w/w) in water, 37-80° C.",22.2 kcal/mol
same,Kobs,"[4]; 40% (w/w) in water, 37° C.",7.24 × 10^-3 months^-1
same,t1/2,"[4]; 40% (w/w) in water, 37° C.",95.7 months
same,t90,"[4]; 40% (w/w) in water, 37° C.",13.8 months
same,Kobs,"[4]; 40% (w/w) in water, 50° C.",3.21 × 10^-2 months^-1
same,t1/2,"[4]; 40% (w/w) in water, 50° C.",21.6 months
same,Kobs,"[4]; 40% (w/w) in water, 65° C.",0.111 months^-1
same,t1/2,"[4]; 40% (w/w) in water, 65° C.",6.3 months
same,Kobs,"[4]; 40% (w/w) in water, 80° C.",0.655 months^-1
same,t1/2,"[4]; 40% (w/w) in water, 80° C.",1.1 months
same,physical aggregation,"[4]; 40% (w/w) in water, two months at 80° C.",5.1%
same,leuprolide recovered,"[4]; 40% (w/w) in water, two months at 80° C., RP-HPLC",81.1%
same,aggregation by SEC (FIG. 2),"[4]; 40% in water, two months at 80° C., dimer and trimer only",very little aggregation
same,antimicrobial activity,bacteria,"bacteriostatic, bactericidal and sporicidal activity"
same,stability of samples after spiking with bacteria,bacteria,unaffected
same,effect of adding polar aprotic solvents such as DMSO on gelation,[5],prevents gelation
same,leuprolide present,[6],88.3%
same,"physical aggregates (""late"")",[6],3.5%
"CC(C)C[C@H](NC(=O)[C@@H](COC(C)(C)C)NC(=O)[C@H](Cc1ccc(O)cc1)NC(=O)[C@H](CO)NC(=O)[C@H](Cc1c[nH]c2ccccc12)NC(=O)[C@H](Cc1cnc[nH]1)NC(=O)[C@@H]1CCC(=O)N1)C(=O)N[C@@H](CCCNC(=N)N)C(=O)N1CCC[C@H]1C(=O)NNC(N)=O [Goserelin, goserelin]",goserelin remained,[7],about 65%
same,% PURITY,[8]; Acetate Buffer/Mannitol,98.1%
same,% CONCENTRATION,[8]; Acetate Buffer/Mannitol,54.2%
same,% PURITY,[8]; [13],98.0%
same,% CONCENTRATION,[8]; [13],50.1%
same,"goserelin retained, in each case",[8]; both vehicles,at least 98%
same,effect of adding polar aprotic solvents such as DMSO on gelation,[5],prevents gelation
calcitonin,effect of adding polar aprotic solvents such as DMSO on gelation,[5],prevents gelation
